1 substance from US6309842A, “Use of modified tethers in screening compound libraries” (Glaxo Wellcome Inc., priority 1997, dated 2001) can be followed below.

One data set addresses T1, STE2 receptor (Saccharomyces cerevisiae, UniProt D6VTK4).
T1 construct: expressed in transfected cells; host or cells: yeast strain ARY84 (Δste2::ura3, plasmid pRS416(URA3)-STE2)
T1 sequence (D6VTK4 1-431): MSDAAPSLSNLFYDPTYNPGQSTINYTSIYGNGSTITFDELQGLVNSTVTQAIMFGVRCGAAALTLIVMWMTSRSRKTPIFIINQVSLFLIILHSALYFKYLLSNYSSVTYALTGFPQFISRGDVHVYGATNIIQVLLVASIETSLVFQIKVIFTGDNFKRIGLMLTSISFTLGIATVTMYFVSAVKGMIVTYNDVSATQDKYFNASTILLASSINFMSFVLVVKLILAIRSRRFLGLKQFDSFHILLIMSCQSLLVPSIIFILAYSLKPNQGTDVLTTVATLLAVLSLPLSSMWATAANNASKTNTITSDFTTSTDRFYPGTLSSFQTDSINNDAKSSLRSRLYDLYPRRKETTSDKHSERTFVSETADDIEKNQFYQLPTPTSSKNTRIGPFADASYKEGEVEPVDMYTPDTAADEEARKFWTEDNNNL
The data set is described as follows: Bead tether modification by yeast acid phosphatase, FACScan of 3E7-coated beads. Type of data set: cell-based. The settings on record: 500 nM alpha factor, beads exposed 18 hr, 200 nM AF12402. An excerpt:
This system employs yeast ARI 84 reporter cells bearing an STE2 receptor and containing a reporter construct in which a pho3 gene is linked to a FUS1 promoter. Acid phosphatase expressed by the yeast is used to dephosphorylate the substrate phospho-YGGFL-linker-biotin. (SEQ ID NO:25) As a result of dephosphorylation, the substrate can bind to a 3E7 antibody tether. The biotinylated portion of modified tethers is stained using a PE- or alkaline-phosphatase-conjugated streptavidin. Complexes with stained tethers are sorted by FACS™.
ARY84 culture from a fresh, 4-10 day old patch was grown in 3 ml SC minimal media minus Trp, Ura, Leu, pH adjusted to 6.15 using MES buffer 200 mM final at @30C overnight in a tube rotator. At A600, the growing culture was diluted to 0.1 A600 in duplicate in pH 6.15 SC media minus Trp, Ura, Leu. One diluted culture was induced by addition of alpha factor to 500 nM final concentration. 0.1 ml of the appropriate diluted induced or uninduced culture was added to wells of a BSA-blocked 96-well microtitre plate. […]
A desired amount of monobeads (at about 1×10^7 beads/ml) was washed once in 0.5 ml methanol, and twice in 1 ml PBS, pH 7.5. […] The density of beads was determined and about 1×10^5 beads were added to each well (after washing with PBS 0.1% BSA to remove the azide). […]
Staining was analyzed by running the beads through a Becton Dickinson FACScan™ machine. […]

Data set [1] addresses T2, yeast alpha factor receptor (STE2) (Saccharomyces cerevisiae, UniProt D6VTK4).
T2 construct: expressed in transfected cells; host or cells: yeast strain ARY 110 with plasmid pRS416-STE2
T2 sequence (D6VTK4 1-431): T1 sequence (D6VTK4 1-431)
The data set is described as follows: Secreted β-galactosidase reporter in yeast ARY 110 (FUS1 promoter). Type of data set: cell-based. To be noted: ARY110 culture supernatants. From the text: A second expression system links the A. niger secreted β-galactosidasegene to the yeast mating pathway/FUS1 promoter induction system. Using the integrating beta-galactosidase encoding plasmid pCMGy69 in concert with the yeast alpha factor receptor (STE2) encoding plasmid, PRS416-STE2 (centomeric), a yeast strain designated ARY 110 was produced with the following genotype; (far1 his3 sst2 FUS1-HIS3 FUS1-sBeta-Gal STE2).

As for α-factor, at STE2 receptor, the “FACScan shift of beads, induced vs not induced yeast” value worked out at 10 fold. Also, the “beta-galactosidase activity in supernatants over non-induced levels” value in data set [1] is listed as “up to 79 fold”.
